Measurements reported in ChEMBL document CHEMBL3992555, “Design, synthesis and preliminary biological evaluation of indole-3-carboxylic acid-based skeleton of Bcl-2/Mcl-1 dual inhibitors” (Bioorg Med Chem, 2017).

Tests used:
[1] = target: Apoptosis regulator Bcl-2 (Homo sapiens, UniProt P10415); assay: Inhibition of N-terminal FAM-labeled Bid-BH3 peptide binding to Bcl2 (unknown origin) preincubated for 30 mins followed by N-terminal FAM-labeled Bid-BH3 peptide addition measured after 20 mins by fluorescence polarization assay
Bcl-2-like protein 1 = Bcl-2-like protein 1 (Homo sapiens, UniProt Q07817); assay: Inhibition of N-terminal FAM-labeled Bid-BH3 peptide binding to Bcl-XL (unknown origin) preincubated for 30 mins followed by N-terminal FAM-labeled Bid-BH3 peptide addition measured after 20 mins by fluorescence polarization assay
[2] = target: Induced myeloid leukemia cell differentiation protein Mcl-1 (Homo sapiens, UniProt Q07820); assay: Inhibition of N-terminal FAM-labeled Bid-BH3 peptide binding to MCL1 (unknown origin) preincubated for 30 mins followed by N-terminal FAM-labeled Bid-BH3 peptide addition measured after 20 mins by fluorescence polarization assay
MDA-MB-231 = assay: Antiproliferative activity against human MDA-MB-231 cells after 48 hrs by MTT assay; format: functional, cell-based; conditions: MDA-MB-231, 48 h
PC-3 = assay: Antiproliferative activity against human PC3 cells after 48 hrs by MTT assay; format: functional, cell-based; conditions: PC-3, 48 h
K562 = assay: Antiproliferative activity against human K562 cells after 48 hrs by MTT assay; format: functional, cell-based; conditions: K562, 48 h

Apoptosis regulator Bcl-2, sequence (P10415 whole entry): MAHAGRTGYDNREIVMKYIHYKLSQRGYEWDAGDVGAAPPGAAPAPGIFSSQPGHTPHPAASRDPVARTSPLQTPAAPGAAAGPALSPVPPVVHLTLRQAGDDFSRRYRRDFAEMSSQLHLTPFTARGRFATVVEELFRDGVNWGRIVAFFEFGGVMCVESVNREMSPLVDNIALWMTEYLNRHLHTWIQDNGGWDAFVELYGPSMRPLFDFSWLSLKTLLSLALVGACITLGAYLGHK
Bcl-2-like protein 1, sequence (Q07817 whole entry): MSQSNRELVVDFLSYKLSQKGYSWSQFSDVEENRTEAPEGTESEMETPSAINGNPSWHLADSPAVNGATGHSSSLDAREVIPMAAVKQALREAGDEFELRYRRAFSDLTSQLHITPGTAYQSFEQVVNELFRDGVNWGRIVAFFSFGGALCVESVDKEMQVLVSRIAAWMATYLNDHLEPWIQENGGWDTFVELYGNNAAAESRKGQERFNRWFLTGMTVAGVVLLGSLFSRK
Induced myeloid leukemia cell differentiation protein Mcl-1, sequence (Q07820 whole entry): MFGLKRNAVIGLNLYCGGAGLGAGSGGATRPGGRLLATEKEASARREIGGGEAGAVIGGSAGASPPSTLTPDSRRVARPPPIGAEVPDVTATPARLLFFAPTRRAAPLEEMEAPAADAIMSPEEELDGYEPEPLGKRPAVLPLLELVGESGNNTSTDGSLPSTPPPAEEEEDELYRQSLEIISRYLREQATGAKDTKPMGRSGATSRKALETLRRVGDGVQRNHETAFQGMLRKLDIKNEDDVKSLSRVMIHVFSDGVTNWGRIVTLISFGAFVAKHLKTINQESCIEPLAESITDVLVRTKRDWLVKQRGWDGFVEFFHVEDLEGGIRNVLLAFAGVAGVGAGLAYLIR

Structure (SMILES)	Ki [1] [µM]	other results
O=C(N[C@@H](Cc1ccccc1)C(=O)NS(=O)(=O)c1ccc(Cl)c([N+](=O)[O-])c1)c1cn(Cc2ccc(-c3ccc(Cl)cc3)cc2)c2ccccc12	0.26	Ki (Bcl-2-like protein 1): 0.71 µM; Ki [2]: 0.072 µM; IC50 (MDA-MB-231): 29.5 µM; IC50 (PC-3): 28.8 µM; IC50 (K562): 19.7 µM
O=C(N[C@@H](Cc1ccc(OCc2ccccc2)cc1)C(=O)NS(=O)(=O)c1ccc(Cl)c([N+](=O)[O-])c1)c1cn(Cc2ccc(-c3ccc(Cl)cc3)cc2)c2ccccc12	> 10	
O=C(N[C@@H](Cc1ccccc1)C(=O)NS(=O)(=O)c1ccc(Cl)c([N+](=O)[O-])c1)c1cn(Cc2ccc(-c3ccccc3)cc2)c2ccccc12	2.6	
CCCOc1ccc(C[C@H](NC(=O)c2cn(Cc3ccc(-c4ccc(OC)cc4)cc3)c3ccccc23)C(=O)NS(=O)(=O)c2ccc(Cl)c([N+](=O)[O-])c2)cc1	> 10	
Cc1ccc(S(=O)(=O)NC(=O)[C@H](Cc2ccccc2)N2C(=O)/C(=C/c3ccc(-c4ccccc4)cc3)SC2=S)cc1	0.76	Ki (Bcl-2-like protein 1): 0.81 µM; Ki [2]: 0.44 µM
CCCOc1ccc(C[C@H](NC(=O)c2cn(Cc3ccc(-c4ccc(Cl)cc4)cc3)c3ccccc23)C(=O)NS(=O)(=O)c2ccc(Cl)c([N+](=O)[O-])c2)cc1	> 10	
Cc1ccc(-c2ccc(Cn3cc(C(=O)N[C@@H](Cc4ccc(OCc5ccccc5)cc4)C(=O)NS(=O)(=O)c4ccc(Cl)c([N+](=O)[O-])c4)c4ccccc43)cc2)cc1	> 10	
COc1ccc(-c2ccc(Cn3cc(C(=O)N[C@@H](Cc4c[nH]c5ccccc45)C(=O)NS(=O)(=O)c4ccc(Cl)c([N+](=O)[O-])c4)c4ccccc43)cc2)cc1	> 10	
CCCOc1ccc(C[C@H](NC(=O)c2cn(Cc3ccc(-c4ccc(Cl)cc4)cc3)c3ccccc23)C(=O)NS(=O)(=O)c2ccc([N+](=O)[O-])cc2)cc1	> 10	
COc1ccc(-c2ccc(Cn3cc(C(=O)N[C@@H](Cc4ccc(OCc5ccccc5)cc4)C(=O)NS(=O)(=O)c4ccc(Cl)c([N+](=O)[O-])c4)c4ccccc43)cc2)cc1	> 10	
O=C(N[C@@H](Cc1ccc(Br)cc1)C(=O)NS(=O)(=O)c1ccc(Cl)c([N+](=O)[O-])c1)c1cn(Cc2ccc(-c3ccc(Cl)cc3)cc2)c2ccccc12	> 10	
O=C(N[C@@H](Cc1ccc(OCc2ccc([N+](=O)[O-])cc2)cc1)C(=O)NS(=O)(=O)c1ccc(Cl)c([N+](=O)[O-])c1)c1cn(Cc2ccc(-c3ccccc3)cc2)c2ccccc12	> 10	
O=C(N[C@@H](Cc1ccc(Br)cc1)C(=O)NS(=O)(=O)c1ccccc1)c1cn(Cc2ccc(-c3ccc(Cl)cc3)cc2)c2ccccc12	0.91	
O=C(N[C@@H](Cc1ccc(OCc2ccccc2)cc1)C(=O)NS(=O)(=O)c1ccc(Cl)c([N+](=O)[O-])c1)c1cn(Cc2ccc(-c3ccccc3)cc2)c2ccccc12	> 10	
CCCOc1ccc(C[C@H](NC(=O)c2cn(Cc3ccc(-c4ccccc4)cc3)c3ccccc23)C(=O)NS(=O)(=O)c2ccc(Cl)c([N+](=O)[O-])c2)cc1	5.6	
O=C(N[C@@H](Cc1ccc(Br)cc1)C(=O)NS(=O)(=O)c1ccc(Cl)c([N+](=O)[O-])c1)c1cn(Cc2ccc(-c3ccccc3)cc2)c2ccccc12	> 10	
O=C(N[C@@H](Cc1ccccc1)C(=O)NS(=O)(=O)c1ccccc1)c1cn(Cc2ccc(-c3ccc(Cl)cc3)cc2)c2ccccc12	0.74	Ki (Bcl-2-like protein 1): 2.1 µM; Ki [2]: 0.49 µM; IC50 (MDA-MB-231): 29.6 µM; IC50 (PC-3): 23.6 µM; IC50 (K562): 32.4 µM
COc1ccc(-c2ccc(Cn3cc(C(=O)N[C@@H](Cc4ccccc4)C(=O)O)c4ccccc43)cc2)cc1	> 10	
O=C(N[C@@H](Cc1ccc(OCc2ccc([N+](=O)[O-])cc2)cc1)C(=O)NS(=O)(=O)c1ccc(Cl)c([N+](=O)[O-])c1)c1cn(Cc2ccc(-c3ccc(Cl)cc3)cc2)c2ccccc12	> 10	
O=C(N[C@@H](Cc1ccccc1)C(=O)NS(=O)(=O)c1ccccc1)c1cn(Cc2ccc(-c3ccccc3)cc2)c2ccccc12	> 10	
COc1ccc(-c2ccc(Cn3cc(C(=O)N[C@@H](Cc4ccccc4)C(=O)NS(=O)(=O)c4ccc(Cl)c([N+](=O)[O-])c4)c4ccccc43)cc2)cc1	> 10	
Cc1cc2c(C(C)C)c(O)c(O)c(C=O)c2c(O)c1-c1c(C)cc2c(C(C)C)c(O)c(O)c(C=O)c2c1O [GOSSYPOL]		IC50 (MDA-MB-231): 8.54 µM; IC50 (PC-3): 8.58 µM; IC50 (K562): 8.28 µM
COc1ccc(-c2ccc(Cn3cc(C(=O)N[C@@H](Cc4ccc(Br)cc4)C(=O)NS(=O)(=O)c4ccc(Cl)c([N+](=O)[O-])c4)c4ccccc43)cc2)cc1	> 10	
COc1ccc(-c2ccc(Cn3cc(C(=O)N[C@@H](Cc4ccccc4)C(=O)NS(=O)(=O)c4ccccc4)c4ccccc43)cc2)cc1	1.3	
COc1ccc(-c2ccc(Cn3cc(C(=O)N[C@@H](Cc4c[nH]c5ccccc45)C(=O)NS(=O)(=O)c4ccc(C)cc4)c4ccccc43)cc2)cc1	0.75	Ki [2]: 0.53 µM; IC50 (MDA-MB-231): 11.5 µM; IC50 (PC-3): 18.3 µM; IC50 (K562): 10.1 µM
CC(C)C[C@H](NC(=O)c1cn(Cc2ccc(-c3ccc(Cl)cc3)cc2)c2ccccc12)C(=O)NS(=O)(=O)c1ccccc1	0.92	Ki (Bcl-2-like protein 1): 6.2 µM; Ki [2]: 0.6 µM
COc1ccc(-c2ccc(Cn3cc(C(=O)N[C@@H](Cc4ccc(OCc5ccc([N+](=O)[O-])cc5)cc4)C(=O)NS(=O)(=O)c4ccc(Cl)c([N+](=O)[O-])c4)c4ccccc43)cc2)cc1	> 10	
